Experimental findings from patent US6914053B2, “Adenosine A3 receptor agonists” (CV Therapeutics, Inc., priority 2002, dated 2005) are described below.

Data set [1] addresses T1, A3 AdoRs (Homo sapiens, UniProt P0DMS8).
T1 construct: expressed in transfected cells; host or cells: HEK-293 or CHO cells (HEK-A3 or CHO-A3), membranes
T1 sequence (P0DMS8 1-318): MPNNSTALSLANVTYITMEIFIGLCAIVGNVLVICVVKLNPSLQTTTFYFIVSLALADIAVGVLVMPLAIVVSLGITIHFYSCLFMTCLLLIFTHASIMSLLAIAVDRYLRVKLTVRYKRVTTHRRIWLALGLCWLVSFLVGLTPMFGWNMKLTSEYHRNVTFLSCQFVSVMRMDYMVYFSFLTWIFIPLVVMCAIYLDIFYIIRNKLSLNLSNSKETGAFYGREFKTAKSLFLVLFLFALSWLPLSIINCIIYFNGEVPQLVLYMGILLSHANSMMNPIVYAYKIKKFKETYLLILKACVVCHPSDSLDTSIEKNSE
Kind of data set: Radioligand binding competition with 125I-AB-MECA on membranes of transfected cells. Conditions: competition with 0.2 nM 125I-AB-MECA, membranes of HEK-A3 or CHO-A3, TEM buffer, 90 minutes. As to the method: Stable transfection of HEK-293 or CHO cells. The cDNAs for human A1, A2A, A2B or A3 AdoRs were prepared by RT-PCR from total RNA of human cells or tissues and sequenced on both strands. The expression vector containing each of these cDNAs and a second vector containing a neomycin or puromycin-resistance gene were introduced to HEK-293 or CHO cells by Lipofectin-Plus (Life Technology). Colonies were selected by growing transfected cells in the presence of neomycin or puromycin. Stably transfected cells were maintained in Dulbecco's modified Eagle's medium (DMEM) or F-12 medium with 10% fetal bovine serum, 100 μg/ml penicillin, 100 μg/ml streptomycin and appropriate concentrations of neomycin or puromycin. These stably transfected cells were referred to as HEK-“AdoR” or CHO-“AdoR” depending on the receptors that they express. For example, cells that were transfected with A3 AdoRs were referred to as HEK-A3 or CHO-A3.
Membrane preparation. Monolayers of transfected cells were washed with phosphate buffered saline (PBS) and harvested in a buffer containing 10 mM HEPES (pH 7.4), 10 mM EDTA and protease inhibitors. The cells were homogenized in polytron for 1 minute at setting 4 and centrifuged at 29000 g for 15 minutes at 4° C. The cell pellets were washed with a buffer containing 10 mM HEPES (pH7.4), 1 mM EDTA and protease inhibitors, and were resuspended in the same buffer supplemented with 10% sucrose. Frozen aliquots were kept at −80° C.
Radioligand binding. The affinities of compounds for A1, A2A, A2B or A3 AdoRs were determined in competition studies using radioligands such as ^3H—CPX (A1 antagonist), or ^3H-CCPA (A1 agonist), ^3H-ZM214385 (A2A antagonist) or ^3H-CGS21680 (A2A agonist), ^3H-ZM214385 (A2B antagonist) or ^125I-AB-MECA (A3 agonist) and membranes of corresponding transfected cells. For example, to determine the affinity for A3 AdoRs, the competition assays were started by mixing 0.2 nM ^125I-AB-MECA with various concentrations of test compounds and 25 ug membrane proteins of HEK-A3 or CHO-A3 in TEM buffer (50 mM Tris, 1 mM EDTA and 10 mM MgCl2) supplemented with 1 U/ml adenosine deaminase. The assays were incubated for 90 minutes, stopped by filtration onto GF/B filter plates using Packard Harvester and washed four times with ice-cold TM buffer (10 mM Tris, 1 mM MgCl2, pH 7.4). The amounts of radioligands that bound to the GF/B filter plates were determined by scintillation counting. Nonspecific binding was determined in the presence of 10 μM R—PIA or 1 μM IB-MECA. Bmax and KD values were calculated using GraphPad software.

By Ki is commonly meant the equilibrium dissociation constant of an inhibitor or competing ligand from its target. A lower Ki goes with tighter binding. As usually defined, the melting point is the temperature of the solid-liquid transition.

In turn, `CONc1nc(C#Cc2ccc(F)cc2)nc2c1ncn2[C@@H]1O[C@H](CO)[C@@H](O)[C@H]1O` [(4S,2R,3R,5R)-2-{2-[2-(4-fluorophenyl)ethynyl}-6-(methoxyamino)purin-9-yl}-5-(hydroxymethyl)oxolane-3,4-diol] showed a Ki in data set [1] of 0.422 nM.

Regarding `CCCCC#Cc1nc(NOC)c2ncn([C@@H]3O[C@H](CO)[C@@H](O)[C@H]3O)c2n1` [(4S,2R,3R,5R)-2-{2-[2-hex-1-ynyl-6-methoxyamino)purin-9-yl}-5-(hydroxymethyl)oxolane-3,4-diol], the Ki in data set [1] is 0.681 nM.

With `CONc1nc(C#Cc2ccc(C)cc2)nc2c1ncn2[C@@H]1O[C@H](CO)[C@@H](O)[C@H]1O` [(4S,2R,3R,5R)-5-(hydroxymethyl)-2-[6-(methoxyamino)-2-[(2-(4-methylphenyl)ethynyl]-purin-9-yl]oxolane-3,4-diol], the Ki in data set [1] was determined as 0.331 nM. Against the preceding molecule, the Ki is about 2.1-fold lower.

`CCCCCc1ccc(C#Cc2nc(NOC)c3ncn([C@@H]4O[C@H](CO)[C@@H](O)[C@H]4O)c3n2)cc1` [(4S,2R,3R,5R)-5-hydroxymethyl)-2-{6-(methoxyamino-2-[2-(4-pentylphenylethynyl)]purin-9-yl}oxolane-3,4-diol] yielded an inhibitory constant (Ki) in data set [1] of 0.388 nM.

The molecule `CONc1nc(C#Cc2ccccc2)nc2c1ncn2[C@@H]1O[C@H](CO)[C@@H](O)[C@H]1O` [Example 6A, (4S,2R,3R,5R)-5-(hydroxymethyl)-2-[6-(methoxyamino)-2-(2-phenylethynyl)purin-9-yl]oxolane-3,4-diol] returned a melting point of 175 to 177 °C.
